As a reminder, the IC50 is the concentration needed to halve the response being measured.

Each structure is given as a SMILES string. Where two headings read alike, the source gives them in different places.

This note sets out measurements from patent EP4700025A1, “AMIDE COMPOUND, PHARMACEUTICAL COMPOSITION COMPRISING SAME, AND USE THEREOF” (Suzhou Genhouse Bio Co., Ltd., priority 2023, dated 2024).

In one series the target is PRMT5 (Homo sapiens, UniProt O14744). Nature of the series: Inhibitory activity against enzymatic activity of PRMT5 (fluorescence polarization). Format: biochemical. Conditions: PRMT5 25 nM, SAM 1 µM, polypeptide 1 µM, MTA 2 µM; 37 °C 2 hours. As to the method: The compounds were prepared into 10 mM stock solutions using DMSO, and then 9 concentration gradients (with an initial concentration of 10 µM followed by 1:5 dilution) were prepared using a buffer (50 mM Tris-HCl pH 8.5, 5 mM MgCl2, 4 mM DTT, 0.01% Triton X-100, 0.1 M NaCl, 0.5% DMSO), and each well received 5 µL of the diluted compound solutions. SAM, a polypeptide, and MTA were prepared using a buffer to final concentrations of 1 µM, 1 µM, and 2 µM, respectively, and were added to each well in a total of 5 µL. Meanwhile, an MTA-free group was set as a control. […] Subsequently, a mixture of 2.5 µL of stop buffer A, 2.5 µL of an 8× MT assay mixture (final concentration: 1×), and 24 µg/mL AMP2/GMP2 antibodies (final concentration: 3 µg/mL) was added. The resulting mixture was incubated at room temperature for 1.5 hours, and fluorescence polarization (FP) was measured (Ex 633, Em 647). Meanwhile, negative control wells without protein (Blank) and positive control wells without compound (DMSO) were set. Each experiment was independently repeated three times.
Data processing: The numerical values of each group were recorded for statistical analysis, and the inhibition rate was calculated according to the following formula: inhibition percentage of compound wells (% inh) = [1 - (ave Blank - Cpd well)/(ave Blank - ave DMSO control)] × 100. Note: ave represents the average value, and Cpd represents the numerical value of the wells containing the compound. A sigmoidal dose-inhibition rate curve was plotted and fitted using a nonlinear regression model in the GraphPad Prism 7.0 software, and the IC50 value was calculated. Table 1. Inhibitory activity of compounds against enzymatic activity of PRMT5
(Fluorescence polarisation rises when a labelled molecule tumbles more slowly, as on binding a larger partner.)

A further series deals with T1, CYP450 2C9 (Homo sapiens, UniProt P11712).
T1 construct: from tissue; host or cells: human liver microsomes
Nature of the series: Inhibition of human liver microsome CYP450 enzyme 2C9. The format is in vitro ADME. The protocol:
(§1) 100 mM K-Buffer: 9.5 mL of stock solution A was mixed with 40.5 mL of stock solution B, the total volume was adjusted to 500 mL with ultrapure water, and the buffer was titrated to pH 7.4 with KOH or H3PO4. • Starting material A (1 M potassium dihydrogen phosphate): 136.5 g of potassium dihydrogen phosphate in 1 L of water; • Stock solution B ([…]): 174.2 g of potassium dihydrogen phosphate in 1 L of water.
(§2) The test substance powder was prepared into a stock solution at a certain concentration with DMSO or another organic solvent, which was then further diluted with a suitable organic solvent.
(§3) The liver microsomal in vitro incubation system for the CYP450 enzyme metabolism phenotype study was a biochemical reaction of the prepared liver microsomes supplemented with a redox coenzyme and an enzyme-specific selective inhibitor under simulated physiological temperature and physiological environment conditions.
(§4) The concentration of the parent drug or a metabolite thereof in the incubation solution was determined by LC-MS/MS. and the IC50 value was calculated.
(Microsomes from liver hold many membrane-bound enzymes, among them those of drug oxidation.)

The target in another series is T2, CYP450 2C19 (Homo sapiens, UniProt P33261).
T2 construct: from tissue; host or cells: human liver microsomes
The series can be described thus: Inhibition of human liver microsome CYP450 enzyme 2C19. Format: in vitro ADME. As to the method: as §1, §2, §3, §4

The next series deals with T3, CYP450 2D6 (Homo sapiens, UniProt P10635).
T3 construct: from tissue; host or cells: human liver microsomes
Nature of the series: Inhibition of human liver microsome CYP450 enzyme 2D6. The format is in vitro ADME. As to the method: as §1, §2, §3, §4

The target in series [1] is T4, hERG Potassium Ion Channel (Homo sapiens, UniProt Q12809).
T4 construct: expressed in transfected cells; host or cells: HEK293
The series can be described thus: Effect on hERG potassium ion channel (whole-cell patch clamp, HEK293 cells). Format: cell-based. Conditions: human, whole-cell patch clamp (Qpatch), room temperature. The protocol: HEK293 cells were cultured in a DMEM medium containing 10% fetal bovine serum and 0.8 mg/mL G418 at 37 °C with 5% CO2. The cells were digested by TrypLE™ Express and then centrifuged. The cell density was adjusted to 2 × 10^6 cells/mL. The cells were then gently mixed for 15 to 20 min using a shaker equilibrated at room temperature, and subjected to a patch clamp assay on a machine. The culture medium of the prepared cells was replaced with extracellular fluid. The intracellular fluid and the extracellular fluid were taken from the fluid pool and added to the intracellular fluid pool and the cell and test substance pool of the QPlate chip, respectively. The voltage stimulation of the whole-cell hERG potassium current was recorded by the whole-cell patch clamp, and the experimental data were collected and stored by Qpatch. […] The current detected in compound-free extracellular fluid for each cell served as its own control group, and the detection was repeated twice independently using at least two cells per concentration. […] For data analysis, the current after the action of each drug concentration and the current of the blank control were standardized ((Peak tail currentcompound)/(Peak tail currentvehicle)) [formula] , and then the inhibition rate corresponding to each drug concentration was calculated (1−(Peak tail currentcompound)/(Peak tail currentvehicle)) [formula] . […]
(In general: The hERG channel carries a current that helps repolarise heart muscle cells.)

T1 sequence (P11712 whole entry): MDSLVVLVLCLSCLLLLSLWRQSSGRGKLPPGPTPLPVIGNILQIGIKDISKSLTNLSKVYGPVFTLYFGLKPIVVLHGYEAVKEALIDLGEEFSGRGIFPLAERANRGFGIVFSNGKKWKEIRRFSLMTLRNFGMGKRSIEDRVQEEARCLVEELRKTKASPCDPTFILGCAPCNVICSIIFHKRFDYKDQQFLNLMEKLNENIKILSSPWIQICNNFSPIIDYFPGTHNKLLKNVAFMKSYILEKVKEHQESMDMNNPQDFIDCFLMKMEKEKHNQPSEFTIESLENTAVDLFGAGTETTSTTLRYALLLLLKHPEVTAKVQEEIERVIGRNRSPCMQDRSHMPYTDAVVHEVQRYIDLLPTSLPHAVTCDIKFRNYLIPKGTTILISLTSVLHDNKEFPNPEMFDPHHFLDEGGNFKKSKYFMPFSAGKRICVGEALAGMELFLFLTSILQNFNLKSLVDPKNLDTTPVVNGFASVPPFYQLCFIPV
T2 sequence (P33261 whole entry): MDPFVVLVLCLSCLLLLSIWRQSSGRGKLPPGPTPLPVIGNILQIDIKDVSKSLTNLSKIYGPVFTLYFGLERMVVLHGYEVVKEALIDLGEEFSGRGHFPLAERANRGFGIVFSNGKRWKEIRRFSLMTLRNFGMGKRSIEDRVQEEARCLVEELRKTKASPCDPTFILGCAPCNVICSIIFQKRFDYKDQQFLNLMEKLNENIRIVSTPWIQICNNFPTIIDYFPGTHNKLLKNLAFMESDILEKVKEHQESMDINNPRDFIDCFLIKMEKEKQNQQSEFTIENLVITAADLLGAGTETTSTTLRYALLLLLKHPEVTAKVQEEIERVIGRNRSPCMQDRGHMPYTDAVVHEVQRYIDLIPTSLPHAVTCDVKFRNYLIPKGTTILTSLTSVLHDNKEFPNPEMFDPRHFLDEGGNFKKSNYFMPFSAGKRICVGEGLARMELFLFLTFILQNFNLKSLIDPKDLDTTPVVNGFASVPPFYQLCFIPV
T3 sequence (P10635 whole entry): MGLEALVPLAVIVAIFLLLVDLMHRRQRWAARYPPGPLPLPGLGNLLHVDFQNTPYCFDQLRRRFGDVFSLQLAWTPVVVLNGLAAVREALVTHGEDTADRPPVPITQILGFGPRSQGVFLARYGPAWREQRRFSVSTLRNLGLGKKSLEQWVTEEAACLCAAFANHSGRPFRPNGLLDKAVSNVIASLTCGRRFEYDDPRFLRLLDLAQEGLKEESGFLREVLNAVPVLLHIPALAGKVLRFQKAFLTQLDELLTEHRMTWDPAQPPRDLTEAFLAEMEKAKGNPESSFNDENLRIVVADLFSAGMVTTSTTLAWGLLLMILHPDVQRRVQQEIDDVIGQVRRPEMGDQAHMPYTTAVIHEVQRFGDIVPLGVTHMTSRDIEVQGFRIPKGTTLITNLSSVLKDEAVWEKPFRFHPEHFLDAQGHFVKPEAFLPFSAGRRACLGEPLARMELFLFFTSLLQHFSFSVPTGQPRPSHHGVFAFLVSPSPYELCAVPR
PRMT5, sequence (O14744 whole entry): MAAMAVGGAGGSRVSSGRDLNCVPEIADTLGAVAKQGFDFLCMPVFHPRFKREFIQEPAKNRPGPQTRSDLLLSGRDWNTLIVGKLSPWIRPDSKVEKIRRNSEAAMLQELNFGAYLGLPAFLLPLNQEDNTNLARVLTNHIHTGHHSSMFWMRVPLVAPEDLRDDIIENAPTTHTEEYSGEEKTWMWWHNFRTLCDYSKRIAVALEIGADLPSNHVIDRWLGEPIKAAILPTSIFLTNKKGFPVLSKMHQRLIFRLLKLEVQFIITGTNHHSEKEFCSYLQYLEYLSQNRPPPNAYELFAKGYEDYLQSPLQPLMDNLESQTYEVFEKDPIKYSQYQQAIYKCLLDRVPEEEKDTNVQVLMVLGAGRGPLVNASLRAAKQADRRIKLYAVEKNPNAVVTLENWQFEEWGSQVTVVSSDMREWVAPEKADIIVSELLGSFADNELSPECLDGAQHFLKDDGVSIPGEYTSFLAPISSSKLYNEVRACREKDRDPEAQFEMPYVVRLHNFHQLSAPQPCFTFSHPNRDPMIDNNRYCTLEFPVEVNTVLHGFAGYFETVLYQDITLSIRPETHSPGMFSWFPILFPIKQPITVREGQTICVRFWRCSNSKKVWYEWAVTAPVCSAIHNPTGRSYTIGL
PRMT5, sequence (Q9BQA1 whole entry partner): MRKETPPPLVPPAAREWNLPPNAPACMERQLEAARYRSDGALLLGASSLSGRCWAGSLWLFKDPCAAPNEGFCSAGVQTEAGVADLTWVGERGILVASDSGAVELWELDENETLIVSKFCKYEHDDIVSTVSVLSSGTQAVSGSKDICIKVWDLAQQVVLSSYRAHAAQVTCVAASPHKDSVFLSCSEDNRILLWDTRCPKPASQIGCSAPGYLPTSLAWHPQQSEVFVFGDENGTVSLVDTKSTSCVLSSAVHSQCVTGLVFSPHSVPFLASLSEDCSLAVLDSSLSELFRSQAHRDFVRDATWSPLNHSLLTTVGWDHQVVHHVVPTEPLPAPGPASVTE
T4 sequence (Q12809 whole entry): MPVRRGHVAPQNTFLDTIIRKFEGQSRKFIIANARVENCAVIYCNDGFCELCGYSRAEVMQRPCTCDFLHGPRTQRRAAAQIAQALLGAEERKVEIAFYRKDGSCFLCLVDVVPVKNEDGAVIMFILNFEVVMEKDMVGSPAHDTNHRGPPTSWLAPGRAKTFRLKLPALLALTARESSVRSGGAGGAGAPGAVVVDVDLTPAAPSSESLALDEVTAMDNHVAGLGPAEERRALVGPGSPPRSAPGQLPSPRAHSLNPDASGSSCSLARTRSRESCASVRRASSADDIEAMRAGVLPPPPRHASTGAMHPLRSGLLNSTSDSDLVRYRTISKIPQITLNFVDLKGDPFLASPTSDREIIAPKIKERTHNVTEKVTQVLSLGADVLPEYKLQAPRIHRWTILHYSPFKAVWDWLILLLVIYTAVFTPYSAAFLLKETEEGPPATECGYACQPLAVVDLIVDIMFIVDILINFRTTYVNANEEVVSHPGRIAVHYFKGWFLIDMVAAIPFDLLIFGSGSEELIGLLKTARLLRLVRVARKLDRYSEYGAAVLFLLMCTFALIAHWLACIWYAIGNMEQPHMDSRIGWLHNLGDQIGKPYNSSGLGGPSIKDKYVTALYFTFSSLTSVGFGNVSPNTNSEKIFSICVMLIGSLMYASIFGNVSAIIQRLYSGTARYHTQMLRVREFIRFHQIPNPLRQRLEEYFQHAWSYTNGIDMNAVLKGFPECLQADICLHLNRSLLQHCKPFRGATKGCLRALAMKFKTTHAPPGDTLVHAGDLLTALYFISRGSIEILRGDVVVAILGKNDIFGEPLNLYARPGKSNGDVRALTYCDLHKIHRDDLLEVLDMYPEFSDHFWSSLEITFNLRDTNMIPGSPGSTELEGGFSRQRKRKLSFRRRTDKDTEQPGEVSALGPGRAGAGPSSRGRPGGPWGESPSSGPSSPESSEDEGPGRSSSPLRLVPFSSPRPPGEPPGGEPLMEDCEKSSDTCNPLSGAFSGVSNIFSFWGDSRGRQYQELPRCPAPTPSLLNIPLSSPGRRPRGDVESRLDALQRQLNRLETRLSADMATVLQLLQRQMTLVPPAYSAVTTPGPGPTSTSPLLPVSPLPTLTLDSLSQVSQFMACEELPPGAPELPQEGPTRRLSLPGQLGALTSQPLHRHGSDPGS

As to `Cn1ncc2c(N)nc3cc(F)c(C(=O)N4CCOC[C@@H]4c4ccc5c(c4)OC(F)(F)O5)cc3c21` [Example I-7], the IC50 was 0.0284 µM against PRMT5; > 10 µM against CYP450 2C9 (human, microsomes, pH 7.4); > 10 µM against CYP450 2C19 (human, microsomes, pH 7.4); > 10 µM against CYP450 2D6 (human, microsomes, pH 7.4).

In the case of `Cn1ncc2c(N)nc3cc(F)c(C(=O)N(Cc4ccc5c(c4)OC(F)(F)O5)C4CC4)cc3c21` [Example I-16], the 50% inhibitory concentration (IC50) against PRMT5 was 0.0346 µM; on CYP450 2C9 (human liver microsomes, 2C9, read-out: IC50), > 10 µM; at CYP450 2C19 (human liver microsomes, 2C19, read-out: IC50), > 10 µM; at CYP450 2D6 (human liver microsomes, 2D6, read-out: IC50), > 10 µM.

For `Cn1ncc2c(N)nc3cnc(C(=O)N4CCOC[C@@H]4c4ccc5c(c4)OC(F)(F)O5)cc3c21` [Example I-38], inhibition in series [1] was half-maximal at 22 µM (IC50).
